Data as given in BindingDB's records for doi:10.1016/s0196-9781(99)00098-4 (Uppsala University, 1999).
pKi: −log10 of the molar value.

Assays:
[1] = molecular target: T1, Neuropeptide Y receptor type 1 (Rattus norvegicus, UniProt P21555)
T1 sequence (P21555 whole entry): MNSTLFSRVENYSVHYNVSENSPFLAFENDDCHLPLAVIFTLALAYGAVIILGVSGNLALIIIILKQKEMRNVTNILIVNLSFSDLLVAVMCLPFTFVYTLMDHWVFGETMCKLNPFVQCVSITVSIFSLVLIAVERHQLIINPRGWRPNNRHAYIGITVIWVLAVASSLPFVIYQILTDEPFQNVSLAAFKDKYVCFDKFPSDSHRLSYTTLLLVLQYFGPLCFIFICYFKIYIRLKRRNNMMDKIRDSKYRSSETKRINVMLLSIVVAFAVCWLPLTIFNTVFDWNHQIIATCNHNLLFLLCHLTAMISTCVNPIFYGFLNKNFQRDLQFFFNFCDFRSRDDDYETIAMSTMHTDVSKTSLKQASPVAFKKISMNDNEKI

[2] = molecular target: T2, Neuropeptide Y receptor type 1 (Cavia porcellus, UniProt Q9WVD0)
T2 sequence (Q9WVD0 whole entry): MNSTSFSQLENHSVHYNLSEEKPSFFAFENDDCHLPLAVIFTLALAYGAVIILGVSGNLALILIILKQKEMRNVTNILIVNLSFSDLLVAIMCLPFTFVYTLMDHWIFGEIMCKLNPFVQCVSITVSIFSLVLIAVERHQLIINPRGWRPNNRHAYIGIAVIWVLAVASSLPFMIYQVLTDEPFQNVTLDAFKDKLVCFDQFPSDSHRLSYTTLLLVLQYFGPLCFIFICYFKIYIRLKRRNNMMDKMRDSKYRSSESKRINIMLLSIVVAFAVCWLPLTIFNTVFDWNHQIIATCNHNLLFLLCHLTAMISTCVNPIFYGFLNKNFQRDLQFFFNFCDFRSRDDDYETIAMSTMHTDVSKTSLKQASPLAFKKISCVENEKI

pKi [1] | pKi [2] | Compound
8.89 | 9.10 | CN(C)CC1CCC(CN=C(N)c2ccc(CC(NC(=O)C(Cc3ccccc3)NS(=O)(=O)c3ccc4ccccc4c3)C(=O)N3CCCC3)cc2)CC1 (stereo not given) [CAS_5312150]
8.85 | 8.62 | H-INPIYRLRY-NH2 [NPY 28-36, [P30, Y32, L34]]
– | 8.31 | N=C(N)NCCCC(NC(=O)C(c1ccccc1)c1ccccc1)C(=O)NCc1ccc(O)cc1 (stereo not given) [NSC_5311023]
